These results are taken from patent US9072729B2, “Method for treating fibrosis and cancer with imidazolium and imidazolinium compounds” (Agency for Science, Technology and Research, priority 2008, dated 2015).

The subject of experiment [1] is col1a1, fibronectin, GFAP, SMAA, TGF-β1, TGFβ RI protein expression. The experiment in a line: Western blotting of fibrotic marker proteins in HSC T6 cells. Type of experiment: cell-based, rat. Particulars: DBZIM 100 μM, TDBZIM 50 μM, 48 h. The method, then:
FIG. 8. […] The target proteins were recognized by the respective antibodies, and visualized by the ECL method. The membrane was stripped and re-probed for α-tubulin as the loading control. FIG. 13. […] DPIM (2 mM), EGCG (25 μM) and DBZIM (100 μM) were dissolved in H2O. Alpha-tubulin was used as the loading control. Densitometric measurement of protein band intensity was normalized against the respective vehicle control. (B) Relative densitometric quantification of protein band intensity. The vehicle treated sample was normalized to 1. Protein extracts were prepared by lysing a cell pellet in 10 volumes of boiled 1% sodium dodecyl sulfate (SDS) (90-95° C.) for 10 min for GFAP, or using NE-PER nuclear and cytoplasmic extraction reagents from Pierce (IL, USA) for nuclear proteins, or RIPA (Pierce, Ill., USA) for SMAA, fibronectin, collagen αI(I), TGF-β1 and TGFβ RI. Protein content was quantified using a BCA kit (Pierce, Ill., USA). 15 μg of total protein were resolved in 4-12% gradient SDS/polyacrylamide gel electrophoresis (PAGE) gel, and transferred to a nitrocellular membrane. The membrane was then probed with primary antibodies against GFAP (Dako, Denmark), SMAA (Sigma, USA), procollagen αI(I), fibronectin, c-Jun, c-Fos, JunB, JunD, […] Cruz Biotechnology, CA, USA), NF-κB P65, TGF-β1 and TGFβ RI (Abeam, UK), and detected by horseradish peroxidase-conjugated secondary antibody (Santa Cruz Biotechnology, CA, USA). […] Protein bands were recorded on X-ray film by reacting with ECL chemiluminescence reagents (Amersham Biosciences, NJ, USA). Alpha-tubulin (Abeam, UK) was used as the loading control for total protein, and Tata binding protein (TBP) (Abeam, UK) was used as the loading control for nuclear protein.
(In general: Immunoblotting shows a protein as a band on a membrane.)

The next experiment deals with IL-6. Briefly: Real-time RT-PCR of IL-6 mRNA in HSC T6 cells. It counts as cell-based, rat. Particulars: for inhibition of IL-6 transcription: 48 h. How it is done:
FIG. 10. DBZIM and TDBZIM suppressed IL-6 mRNA. HSC T6 cells were incubated with DBZIM (1, 10, 100 and 300 μM) and (b) TDBZIM (1, 10 and 100 μM) for 48 h for the dosage-dependent study, and (c) with DBZIM (100 μM) and TDBZIM (100 μM) for 8, 24 and 48 h for the time-dependent study. The expression level of IL-6 mRNA was quantified with real-time RT-PCR. The data were presented as mean and SEM, N=6, *^bP<0.01, *^cP<0.005, and *^dP<0.0005, when compared to the vehicle control.
Total RNA was isolated using NucleoSpin RNAII isolation kit (Nacherey & Nagel, Germany), and quantified by ND-100 spectrophotometer (Nanodrop Technologies, DE, USA). The details of real-time RT-PCR were reported elsewhere (Zhang et al. 2006). Briefly, it was a two-step real-time RT-PCR using Taqman chemistry. Total RNA was first reverse transcribed to cDNA, and real-time PCR was run and detected in ABI 7500 Fast Real-Time PCR System (Applied Biosystems, CA, USA). Primers and probes for rat GFAP, SMAA, collagen Ia1, fibronectin, TGF-β1, TGF-β receptor I (TGFβ RI) and IL-6 were ordered from Taqman's assay-on-demand database. Rat β-actin was used as normalization gene, and its expression level was constant (CT difference was <±0.5) throughout the experimental settings in this study. Relative quantification of target mRNA was calculated using comparative threshold cycle method (ΔΔCT) as described in User Bulletin #2 (ABI Prism 7700 Sequence Detection System). Relative quantification was given by 2^−ΔΔCT to express the up-regulation or down regulation of the target gene under the treatments compared to the control.
Background: Quantitative PCR measures a nucleic acid by following its amplification.

In another experiment the test system is HLE cells. Briefly: Growth inhibition assay (MTT), HLE. It counts as cell-based, human. The method, then:
The effect of IMSs (IBN-15, IBN-19, IBN-24, IBN-25 and IBN-32) on the proliferative properties of p53 mutant cell line HLE was examined. The cytotoxicity activity and proliferation inhibition of IMSs in tumor cells were measured by MTT. […] The control experiments with DMSO alone (0.05% v/v) had no effect on cell proliferation. […] (Table 4) Microscopic observation on the cell cultures visually confirmed the inhibition on cell proliferation by IMSs. (FIG. 35)

Experiment [2] has as its system caspase 3, caspase 9 and PARP. The experiment in a line: Western blot of caspase-3, caspase-9 and PARP cleavage in HLE. Particulars: 72 h. It counts as cell-based, human. The method, then: FIG. 38. IMSs, induce cleavage of caspase-3, caspase-9 and PARP. Western blot analysis for the effect of IBN 15, IBM 19, IBN 24, IBM 25, IBN 32 on the cleavage of caspase-3, Caspase-9 and PARP in HLE cells after 72 h exposure to indicated doses of IMSs.
The HLE cells were seeded at a density of 4×10^5 in 10 cm dish. After 24 h incubation, the cells were replaced with fresh 10% DMEM medium and then treated with 60 μM of IBN-15, 90 μM of IBN-19, 90 μM of IBN-24, 30 μM of IBN-25 and 20 μM of IBN 32 and 0.045% DMSO as control for 72 h. Whole cell lysates were prepared on day 3 with lysis buffer [125 mM Tris (pH 7.4), 2% Sodium dodecyl sulfate, 10% glycerol, 6M urea and a protease inhibitor cocktail (Sigma) and 0.02% Bromophenol blue]. The lysates were sonicated for 30 seconds and then heated for 5 mins at boiling temperature. The lysates were centrifuged at 13000 rpm for 10 mins and the protein concentration of each sample was estimated using the BCA protein assay. The lysates was then mixed with 5% 2-mercaptoethanol and stored at −80 C. For Western blotting, samples containing 50 μg of total cell lysate were loaded onto a SDS-PAGE and subjected to electrophoresis. Proteins were transferred to a nitrocellulose membrane and then blocked with 5% non-fat dry milk in Tris buffer saline containing 0.1% Tween 20 for 60 min at 37 C. The membranes were probed with a primary antibody overnight at 4 C in TEST containing 5% Bovine serum albumin. Then the membrane was incubated with horseradish peroxidase (HRP)-conjugated anti-rabbit or anti-mouse secondary antibodies (GE Health care, Chalfont St Giles, UK). Detection was performed with enhanced chemiluminescence (ECL) reagent (Amersham Arlington Heights, Ill.) according to the manufacturer's protocol. Rabbit polyclonal Phospho-p53 (Ser15, 20, 46, 392), anti-caspase-9, anti-caspase-3, anti-PARP antibodies were purchased from Cell Signaling Technology, Inc. (Beverly, Mass., USA). Antibodies against p53 and p21 were purchased from Santa Cruz Biotechnology (Santa Cruz, Calif., USA).

Turning to “1,3,5-tris(4-methyl-imidazolium)-linked cyclophane.3Br [TDBZIM]”, the SMAA protein expression result in experiment [1] was “enhanced”. Moreover, the “procollagen αI(I) and fibronectin protein expression” value in experiment [1] was “attenuated procollagen αI(I) and fibronectin significantly”. Further, the figures for the “inhibition of IL-6 transcription” value in the experiment with IL-6 (1 μM), in the experiment with IL-6 (10 μM) and in the experiment on IL-6 (100 μM) were 37%, 55% and 80%, respectively. Besides, the “inhibition of IL-6 mRNA expression” value in the experiment with IL-6 (100 μM, 24 h) was 52%.
The term IC50 denotes the midpoint of a concentration-inhibition curve. Lower therefore signals inhibition by little substance. On to `CC(=O)Oc1ccc(C[n+]2ccn(Cc3ccccc3)c2C)cc1.[Cl-]` [IBN-19, 1-benzyl-3-(4-acetate-benzyl)-2-methyl-imidazolium chloride], for which the IC50 in the experiment on HLE cells (72 h) is 90 µM; with HLE cells (120 h), 28 µM. Moreover, the “activation and cleavage of caspase 3, caspase 9 and PARP” value in experiment [2] is “induced significant activation and cleavage”.
For the compound `[Br-].c1ccc(Cn2cc[n+](Cc3ccccc3)c2)cc1` [DBZIM, 1,3-bisbenzylimidazolium bromide], the SMAA protein expression entry in experiment [1] was “suppressed”. Further, the “procollagen αI(I) and fibronectin protein expression” value in experiment [1] is “attenuated procollagen αI(I) and fibronectin significantly”. Further, the “inhibition of IL-6 transcription” value in the experiment with IL-6 (1 μM) was found to be 37%; in the experiment on IL-6 (10 μM), 46%; in the experiment on IL-6 (100 μM) it was 53%; in the experiment with IL-6 (300 μM), 59%. Further, in the experiment with IL-6 (100 μM, shorter treatment than 48 h (8, 24 h)), the “suppression of IL-6 mRNA” value was “did not show statistically significant suppression”.
On to `Cc1ccc(C[n+]2ccn(Cc3ccccc3)c2)cc1.[Cl-]` [IBN-24, 1-benzyl-3-(4-methylbenzyl)-imidazolium chloride], for which the IC50 in the experiment with HLE cells (Homo sapiens, 72 h) is 90 µM; with HLE cells (Homo sapiens, 120 h) it was 30 µM. Also, in experiment [2], the “activation and cleavage of caspase 3, caspase 9 and PARP” value is “induced significant activation and cleavage”.
